From patent publication US20260130395A1, “Water Dispersible Botanical Compositions” (Aquila Black Limited, priority 2021, published 2026)

Assay: Stability of cannabinoid entourage and Vitamin E components of the powder concentrate by LCMSMS
Assay type: physicochemical
Conditions: powder stored at 21-25° C.
Protocol: At each time period, 0.05 g of powder was dissolved in 10 ml-15 of ethanol, diluted to fall within the analytical range, and injected into the LCMSMS for analysis.

| Structure (SMILES) | Stability of Plant-Derived Cannabinoid Compounds in Powder Concentrate (0 days) | Stability of Plant-Derived Cannabinoid Compounds in Powder Concentrate (1 days) | Stability of Plant-Derived Cannabinoid Compounds in Powder Concentrate (2 days) | Stability of Plant-Derived Cannabinoid Compounds in Powder Concentrate (3 days) | Stability of Plant-Derived Cannabinoid Compounds in Powder Concentrate (5 days) | Stability of Plant-Derived Cannabinoid Compounds in Powder Concentrate (8 days) | Stability of Plant-Derived Cannabinoid Compounds in Powder Concentrate (9 days) | Stability of Plant-Derived Cannabinoid Compounds in Powder Concentrate (10 days) | Stability of Plant-Derived Cannabinoid Compounds in Powder Concentrate (11 days) | Stability of Plant-Derived Cannabinoid Compounds in Powder Concentrate (12 days) | Stability of Plant-Derived Cannabinoid Compounds in Powder Concentrate (15 days) | Stability of Plant-Derived Cannabinoid Compounds in Powder Concentrate (16 days) | Stability of Plant-Derived Cannabinoid Compounds in Powder Concentrate (17 days) | Stability of Plant-Derived Cannabinoid Compounds in Powder Concentrate (18 days) | Stability of Plant-Derived Cannabinoid Compounds in Powder Concentrate (19 days) | Stability of Plant-Derived Cannabinoid Compounds in Powder Concentrate (22 days) | Stability of Plant-Derived Cannabinoid Compounds in Powder Concentrate (23 days) | Stability of Plant-Derived Cannabinoid Compounds in Powder Concentrate (24 days) | Stability of Plant-Derived Cannabinoid Compounds in Powder Concentrate (25 days) | Stability of Plant-Derived Cannabinoid Compounds in Powder Concentrate (26 days) | other results |
| --- | --- | --- | --- | --- | --- | --- | --- | --- | --- | --- | --- | --- | --- | --- | --- | --- | --- | --- | --- | --- | --- |
| CCCCCc1cc(O)c2c(c1)OC1(C)CCC3C1C2C3(C)C (stereo not drawn) [CBL, cannabicyclol] | 0.050 mg/g powder | 0.051 mg/g powder | 0.049 mg/g powder | 0.050 mg/g powder | 0.052 mg/g powder | 0.050 mg/g powder | 0.050 mg/g powder | 0.050 mg/g powder | 0.052 mg/g powder | 0.052 mg/g powder | 0.048 mg/g powder | 0.049 mg/g powder | 0.049 mg/g powder | 0.052 mg/g powder | 0.052 mg/g powder | 0.051 mg/g powder | 0.051 mg/g powder | 0.050 mg/g powder | 0.050 mg/g powder | 0.051 mg/g powder | Stability of Plant-Derived Cannabinoid Compounds in Powder Concentrate (29 days): 0.048 mg/g powder; Stability of Plant-Derived Cannabinoid Compounds in Powder Concentrate (30 days): 0.051 mg/g powder; Stability of Plant-Derived Cannabinoid Compounds in Powder Concentrate (60 days): 0.050 mg/g powder; Stability of Plant-Derived Cannabinoid Compounds in Powder Concentrate (90 days): 0.050 mg/g powder; Stability of Plant-Derived Cannabinoid Compounds in Powder Concentrate (120 days): 0.048 mg/g powder; Stability of Plant-Derived Cannabinoid Compounds in Powder Concentrate (150 days): 0.050 mg/g powder; Stability of Plant-Derived Cannabinoid Compounds in Powder Concentrate (180 days): 0.049 mg/g powder; Stability of Plant-Derived Cannabinoid Compounds in Powder Concentrate (210 days): 0.052 mg/g powder; Stability of Plant-Derived Cannabinoid Compounds in Powder Concentrate (240 days): 0.049 mg/g powder; Stability of Plant-Derived Cannabinoid Compounds in Powder Concentrate (270 days): 0.051 mg/g powder; Stability of Plant-Derived Cannabinoid Compounds in Powder Concentrate (300 days): 0.050 mg/g powder; Stability of Plant-Derived Cannabinoid Compounds in Powder Concentrate (330 days): 0.049 mg/g powder; Stability of Plant-Derived Cannabinoid Compounds in Powder Concentrate (360 days): 0.050 mg/g powder; Stability of Plant-Derived Cannabinoid Compounds in Powder Concentrate (390 days): 0.052 mg/g powder; Stability of Plant-Derived Cannabinoid Compounds in Powder Concentrate (420 days): 0.050 mg/g powder; Stability of Plant-Derived Cannabinoid Compounds in Powder Concentrate (450 days): 0.052 mg/g powder; Stability of Plant-Derived Cannabinoid Compounds in Powder Concentrate (480 days): 0.051 mg/g powder; Stability of Plant-Derived Cannabinoid Compounds in Powder Concentrate (510 days): 0.050 mg/g powder; Stability of Plant-Derived Cannabinoid Compounds in Powder Concentrate (540 days): 0.048 mg/g powder; Stability of Plant-Derived Cannabinoid Compounds in Powder Concentrate (570 days): 0.050 mg/g powder |
| CCCCCc1cc2c(c(O)c1C(=O)O)[C@@H]1C=C(C)CC[C@H]1C(C)(C)O2 [D9 THCA, delta-9-tetrahydrocannabinolic acid] | 0.150 mg/g powder | 0.150 mg/g powder | 0.147 mg/g powder | 0.150 mg/g powder | 0.146 mg/g powder | 0.156 mg/g powder | 0.151 mg/g powder | 0.148 mg/g powder | 0.145 mg/g powder | 0.152 mg/g powder | 0.151 mg/g powder | 0.157 mg/g powder | 0.156 mg/g powder | 0.149 mg/g powder | 0.146 mg/g powder | 0.150 mg/g powder | 0.147 mg/g powder | 0.150 mg/g powder | 0.150 mg/g powder | 0.150 mg/g powder | Stability of Plant-Derived Cannabinoid Compounds in Powder Concentrate (29 days): 0.152 mg/g powder; Stability of Plant-Derived Cannabinoid Compounds in Powder Concentrate (30 days): 0.151 mg/g powder; Stability of Plant-Derived Cannabinoid Compounds in Powder Concentrate (60 days): 0.146 mg/g powder; Stability of Plant-Derived Cannabinoid Compounds in Powder Concentrate (90 days): 0.147 mg/g powder; Stability of Plant-Derived Cannabinoid Compounds in Powder Concentrate (120 days): 0.147 mg/g powder; Stability of Plant-Derived Cannabinoid Compounds in Powder Concentrate (150 days): 0.153 mg/g powder; Stability of Plant-Derived Cannabinoid Compounds in Powder Concentrate (180 days): 0.154 mg/g powder; Stability of Plant-Derived Cannabinoid Compounds in Powder Concentrate (210 days): 0.151 mg/g powder; Stability of Plant-Derived Cannabinoid Compounds in Powder Concentrate (240 days): 0.148 mg/g powder; Stability of Plant-Derived Cannabinoid Compounds in Powder Concentrate (270 days): 0.148 mg/g powder; Stability of Plant-Derived Cannabinoid Compounds in Powder Concentrate (300 days): 0.156 mg/g powder; Stability of Plant-Derived Cannabinoid Compounds in Powder Concentrate (330 days): 0.156 mg/g powder; Stability of Plant-Derived Cannabinoid Compounds in Powder Concentrate (360 days): 0.155 mg/g powder; Stability of Plant-Derived Cannabinoid Compounds in Powder Concentrate (390 days): 0.153 mg/g powder; Stability of Plant-Derived Cannabinoid Compounds in Powder Concentrate (420 days): 0.154 mg/g powder; Stability of Plant-Derived Cannabinoid Compounds in Powder Concentrate (450 days): 0.155 mg/g powder; Stability of Plant-Derived Cannabinoid Compounds in Powder Concentrate (480 days): 0.149 mg/g powder; Stability of Plant-Derived Cannabinoid Compounds in Powder Concentrate (510 days): 0.154 mg/g powder; Stability of Plant-Derived Cannabinoid Compounds in Powder Concentrate (540 days): 0.154 mg/g powder; Stability of Plant-Derived Cannabinoid Compounds in Powder Concentrate (570 days): 0.148 mg/g powder |
| CCCCCc1cc(O)c2c(c1)OC(C)(C)c1ccc(C)cc1-2 [CBN, cannabinol] | 0.480 mg/g powder | 0.471 mg/g powder | 0.488 mg/g powder | 0.474 mg/g powder | 0.491 mg/g powder | 0.469 mg/g powder | 0.466 mg/g powder | 0.499 mg/g powder | 0.494 mg/g powder | 0.496 mg/g powder | 0.472 mg/g powder | 0.483 mg/g powder | 0.465 mg/g powder | 0.470 mg/g powder | 0.490 mg/g powder | 0.486 mg/g powder | 0.469 mg/g powder | 0.465 mg/g powder | 0.486 mg/g powder | 0.486 mg/g powder | Stability of Plant-Derived Cannabinoid Compounds in Powder Concentrate (29 days): 0.484 mg/g powder; Stability of Plant-Derived Cannabinoid Compounds in Powder Concentrate (30 days): 0.476 mg/g powder; Stability of Plant-Derived Cannabinoid Compounds in Powder Concentrate (60 days): 0.489 mg/g powder; Stability of Plant-Derived Cannabinoid Compounds in Powder Concentrate (90 days): 0.483 mg/g powder; Stability of Plant-Derived Cannabinoid Compounds in Powder Concentrate (120 days): 0.498 mg/g powder; Stability of Plant-Derived Cannabinoid Compounds in Powder Concentrate (150 days): 0.500 mg/g powder; Stability of Plant-Derived Cannabinoid Compounds in Powder Concentrate (180 days): 0.464 mg/g powder; Stability of Plant-Derived Cannabinoid Compounds in Powder Concentrate (210 days): 0.501 mg/g powder; Stability of Plant-Derived Cannabinoid Compounds in Powder Concentrate (240 days): 0.467 mg/g powder; Stability of Plant-Derived Cannabinoid Compounds in Powder Concentrate (270 days): 0.464 mg/g powder; Stability of Plant-Derived Cannabinoid Compounds in Powder Concentrate (300 days): 0.469 mg/g powder; Stability of Plant-Derived Cannabinoid Compounds in Powder Concentrate (330 days): 0.502 mg/g powder; Stability of Plant-Derived Cannabinoid Compounds in Powder Concentrate (360 days): 0.499 mg/g powder; Stability of Plant-Derived Cannabinoid Compounds in Powder Concentrate (390 days): 0.479 mg/g powder; Stability of Plant-Derived Cannabinoid Compounds in Powder Concentrate (420 days): 0.481 mg/g powder; Stability of Plant-Derived Cannabinoid Compounds in Powder Concentrate (450 days): 0.480 mg/g powder; Stability of Plant-Derived Cannabinoid Compounds in Powder Concentrate (480 days): 0.485 mg/g powder; Stability of Plant-Derived Cannabinoid Compounds in Powder Concentrate (510 days): 0.499 mg/g powder; Stability of Plant-Derived Cannabinoid Compounds in Powder Concentrate (540 days): 0.492 mg/g powder; Stability of Plant-Derived Cannabinoid Compounds in Powder Concentrate (570 days): 0.471 mg/g powder |
